In brackets after ≈: the same amount, converted by molar mass. Several values for one entry are separate records, joined by “and”; a condition that tells them apart may be missing. Equal values may be shown once.
Columns and labels:
Experiment in all cases: ≥ marks a high value that may be exact or a test limit, other limits are often not marked, values filed in µg/mL are converted to µM
[1] = test system: Pseudomonas aeruginosa ATCC 15442
[2] = test system: Staphylococcus aureus
[3] = test system: Staphylococcus aureus ATCC 6538P
[4] = test system: Staphylococcus aureus Cowan 1
[5] = test system: Bacillus subtilis ATCC 9466
[6] = test system: Candida albicans
[7] = test system: Escherichia coli HB101
[8] = test system: Stenotrophomonas maltophilia FC
[9] = test system: Pseudomonas aeruginosa
[10] = test system: Burkholderia cepacia 6/06
[11] = test system: Bacillus subtilis CMCC 63501
[12] = test system: Staphylococcus aureus ATCC 29213
[13] = test system: Staphylococcus epidermidis ATCC 12228
[14] = test system: Escherichia coli ATCC 25922
[15] = test system: Escherichia coli UB1005
[16] = test system: Enterococcus faecalis ATCC 29212
[17] = test system: Pseudomonas aeruginosa PAO1
[18] = test system: Salmonella typhimurium ATCC 7731
[19] = test system: Salmonella enterica subsp. enterica serovar Typhimurium ATCC 14028
[20] = test system: Pseudomonas aeruginosa ATCC 27853
[21] = test system: Pseudomonas aeruginosa H188
[22] = test system: Escherichia coli
[23] = test system: Escherichia coli DH5alpha
[24] = test system: Vibrio anguillarum ATCC 19264
[25] = test system: Vibrio parahaemolyticus ATCC 33847
[26] = test system: Listeria monocytogenes ATCC 19115
[27] = test system: Vibrio alginolyticus ATCC 17749
[28] = test system: Staphylococcus aureus ATCC 6538
[29] = test system: Aeromonas hydrophila ATCC 7966
[30] = test system: Vibrio alginolyticus CGMCC 1.1833
[31] = test system: Aeromonas hydrophila CGMCC 1.0927
[32] = test system: Edwardsiella tarda
[33] = test system: Bacillus subtilis CGMCC 1.108
[34] = test system: Aeromonas sobria
[35] = test system: Pseudomonas fluorescens CGMCC 1.0032
[36] = test system: Vibrio parahaemolyticus CGMCC 1.1615
[37] = test system: Vibrio fluvialis CGMCC 1.1609
[38] = test system: Candida albicans CGMCC 2.2411
[39] = test system: Staphylococcus aureus CGMCC 1.363
[40] = test system: Corynebacterium glutamicum CGMCC 1.1886
[41] = test system: Staphylococcus epidermidis CGMCC 1.2429
[42] = test system: Vibrio harveyi CGMCC 1.1593
[43] = test system: Escherichia coli MC1061
[44] = test system: Micrococcus luteus CGMCC 1.634
[45] = test system: Micrococcus luteus CGMCC 1.0634
[46] = test system: Shigella flexneri CGMCC 1.1868
[47] = test system: Streptococcus pneumoniae ATCC 49619
[48] = test system: Mycobacterium tuberculosis H37Rv

Question: What does the source list for `CSCC[C@H](NC(=O)[C@@H](NC(=O)CNC(=O)[C@H](CC(C)C)NC(=O)[C@H](CCCCN)NC(=O)[C@H](CCCCN)NC(=O)[C@H](CC(C)C)NC(=O)[C@H](CCSC)NC(=O)[C@@H](NC(=O)[C@H](CCCCN)NC(=O)[C@H](Cc1cnc[nH]1)NC(=O)[C@H](CC(C)C)NC(=O)[C@H](C)N)[C@@H](C)O)[C@@H](C)O)C(=O)N[C@@H](C)C(=O)N[C@@H](CC(C)C)C(N)=O` [ALHKTMLKKLGTMAL]?
Answer: MIC [1]: ≥ 45 µM; MIC [2]: > 45 µM; MIC [3]: ≥ 45 µM; MIC [4]: ≥ 44.9 µM; MIC [5]: ≥ 45 µM; MIC [6]: > 45 µM; MIC [7]: ≥ 44.9 µM; MIC [8]: ≥ 45 µM; MIC [9]: > 45 µM; MIC [10]: ≥ 45 µM

Question: How did the MIC [11] turn out when `CC[C@H](C)[C@H](NC(=O)[C@H](CCCCN)NC(=O)[C@H](CCCCN)NC(=O)[C@H](Cc1ccccc1)NC(=O)[C@H](CC(C)C)NC(=O)[C@H](CCCCN)NC(=O)[C@H](Cc1c[nH]c2ccccc12)NC(=O)[C@H](CCCCN)NC(=O)[C@@H](NC(=O)[C@H](CCCN=C(N)N)NC(=O)[C@@H](NC(=O)[C@H](CCCN=C(N)N)NC(=O)[C@@H](NC(=O)[C@H](CCCN=C(N)N)NC(=O)[C@@H](N)Cc1ccccc1)[C@@H](C)CC)C(C)C)C(C)C)C(N)=O` [FRIRVRVKWKLFKKI] was run?
Answer: The MIC was 1 µM (≈ 2.02 µg/mL).

Question: And the MIC [12]?
Answer: The MIC was 2 µM and 4 µM.

Question: And the MIC [13]?
Answer: Its MIC is 0.5 µM (≈ 1.01 µg/mL).

Question: What about the MIC [14] of the same compound?
Answer: Its MIC is 2 µM and 4 µM.

Question: And the MIC [15]?
Answer: The MIC was 2 µM (≈ 4.03 µg/mL).

Question: And the MIC [16]?
Answer: The MIC was 1 µM (≈ 2.02 µg/mL).

Question: What about the MIC [17] of the same compound?
Answer: The MIC was 2 µM (≈ 4.03 µg/mL).

Question: What about the MIC [18] of the same compound?
Answer: Its MIC is 4 µM (≈ 8.07 µg/mL).

Question: And the MIC [19]?
Answer: The MIC was 4 µM (≈ 8.07 µg/mL).

Question: And the MIC [20]?
Answer: The MIC was 2 µM (≈ 4.03 µg/mL).

Question: `CC[C@H](C)[C@H](NC(=O)[C@H](C)NC(=O)[C@H](CCCCN)NC(=O)[C@H](CC(C)C)NC(=O)[C@H](C)NC(=O)[C@@H](NC(=O)[C@H](Cc1cnc[nH]1)NC(=O)[C@H](CC(C)C)NC(=O)[C@H](C)NC(=O)[C@@H](NC(=O)[C@H](CCCCN)NC(=O)[C@H](CCCCN)NC(=O)[C@H](C)NC(=O)[C@H](CO)NC(=O)[C@H](CCCCN)NC(=O)[C@H](Cc1ccccc1)NC(=O)[C@@H](NC(=O)[C@H](CCCCN)NC(=O)[C@H](CC(C)C)NC(=O)[C@H](Cc1ccccc1)NC(=O)[C@H](CO)NC(=O)[C@H](CCCCN)NC(=O)[C@H](Cc1c[nH]c2ccccc12)NC(=O)[C@H](CCCCN)NC(C)=O)[C@@H](C)O)[C@@H](C)O)[C@@H](C)O)C(=O)N[C@@H](CO)C(=O)N[C@@H](CO)C(N)=O` [KWKSFLKTFKSAKKTALHTALKAISS] was tested. Which MIC [21] did it give?
Answer: Its MIC is 1.37 µM (≈ 4.06 µg/mL).

Question: And the MIC [22]?
Answer: The MIC was 0.342 µM (≈ 1.01 µg/mL).

Question: What about the MIC [14] of the same compound?
Answer: The MIC was 0.685 µM (≈ 2.03 µg/mL).

Question: What about the MIC [23] of the same compound?
Answer: Its MIC is 1.37 µM (≈ 4.06 µg/mL).

Question: And the MIC [20]?
Answer: The MIC was 1.37 µM (≈ 4.06 µg/mL).

Question: Which results are given for `CC(C)C[C@H](N)C(=O)NCC(=O)NCC(=O)N[C@@H](CC(=O)O)C(=O)N[C@@H](CC(N)=O)C(=O)N[C@@H](Cc1ccc(O)cc1)C(=O)NCC(=O)N[C@H](C(=O)N[C@@H](Cc1ccccc1)C(=O)N[C@@H](CO)C(=O)NCC(=O)N[C@@H](CO)C(=O)N[C@@H](CC(N)=O)C(=O)NCC(=O)N[C@@H](CC(N)=O)C(=O)N[C@@H](CC(N)=O)C(=O)N[C@@H](Cc1ccccc1)C(=O)N[C@@H](CCC(N)=O)C(=O)N[C@@H](Cc1cnc[nH]1)C(=O)NCC(=O)N[C@@H](CO)C(=O)N[C@@H](CC(N)=O)C(=O)O)[C@@H](C)O` [LGGDNYGTFSGSNGNNFQHGSN]?
Answer: MIC [24]: ≥ 44.6 µM; MIC [25]: 22.3 µM (≈ 50 µg/mL); MIC [26]: 1.39 µM (≈ 3.13 µg/mL); MIC [27]: ≥ 44.6 µM; MIC [28]: 2.78 µM (≈ 6.25 µg/mL); MIC [29]: ≥ 44.6 µM

Question: How did the MIC [30] turn out when `CC[C@H](C)[C@H](NC(=O)[C@H](CCCN=C(N)N)NC(=O)CNC(=O)[C@@H](NC(=O)[C@@H]1CCCN1C(=O)[C@H](Cc1ccccc1)NC(=O)[C@H](CCC(N)=O)NC(=O)[C@H](CC(C)C)NC(=O)CNC(=O)[C@H](C)NC(=O)[C@H](CCCN=C(N)N)NC(=O)[C@H](C)NC(=O)[C@H](CO)NC(=O)[C@@H](N)CCCN=C(N)N)C(C)C)C(=O)N[C@@H](Cc1cnc[nH]1)C(=O)N[C@@H](CCCN=C(N)N)C(=O)N[C@@H](Cc1cnc[nH]1)C(=O)N[C@@H](CC(C)C)C(=O)N[C@@H](CCCCN)C(=O)O` [RSARAGLQFPVGRIHRHLK] was run?
Answer: The MIC was ≥ 48 µM.

Question: And the MIC [31]?
Answer: The MIC was 4.24 µM (≈ 9.33 µg/mL).

Question: And the MIC [32]?
Answer: Its MIC is ≥ 48 µM.

Question: What about the MIC [33] of the same compound?
Answer: The MIC was 4.24 µM (≈ 9.33 µg/mL).

Question: What about the MIC [34] of the same compound?
Answer: Its MIC is ≥ 48 µM.

Question: What about the MIC [35] of the same compound?
Answer: Its MIC is 4.24 µM (≈ 9.33 µg/mL).

Question: And the MIC [36]?
Answer: The MIC was ≥ 48 µM.

Question: And the MIC [37]?
Answer: Its MIC is ≥ 48 µM.

Question: What about the MIC [38] of the same compound?
Answer: Its MIC is ≥ 48 µM.

Question: What about the MIC [39] of the same compound?
Answer: Its MIC is 4.24 µM (≈ 9.33 µg/mL).

Question: And the MIC [40]?
Answer: Its MIC is 2.12 µM (≈ 4.67 µg/mL).

Question: What about the MIC [41] of the same compound?
Answer: Its MIC is 17 µM (≈ 37.3 µg/mL).

Question: What about the MIC [42] of the same compound?
Answer: The MIC was ≥ 48 µM.

Question: And the MIC [43]?
Answer: Its MIC is 4.24 µM (≈ 9.33 µg/mL).

Question: What about the MIC [44] of the same compound?
Answer: Its MIC is 2.12 µM (≈ 4.67 µg/mL).

Question: What about the MIC [45] of the same compound?
Answer: Its MIC is 4.24 µM (≈ 9.33 µg/mL).

Question: What about the MIC [46] of the same compound?
Answer: Its MIC is 4.24 µM (≈ 9.33 µg/mL).

Question: What does the source list for `C[C@@H](O)[C@H](N)C(=O)N[C@@H](CCCCN)C(=O)N1CCC[C@H]1C(=O)N[C@@H](CCCCN)C(=O)NCC(=O)N[C@H](C(=O)N[C@@H](CCCCN)C(=O)N1CCC[C@H]1C(=O)N[C@@H](CCCCN)C(=O)NCC(=O)N[C@H](C(=O)N[C@@H](CCCCN)C(=O)N1CCC[C@H]1C(=O)N[C@@H](CCCCN)C(=O)NCC(=O)N[C@H](C(=O)N[C@@H](CCCCN)C(=O)N1CCC[C@H]1C(=O)N[C@@H](CCCCN)C(=O)NCC(N)=O)[C@@H](C)O)[C@@H](C)O)[C@@H](C)O` [TKPKGTKPKGTKPKGTKPKG]?
Answer: MIC [47]: ≥ 300 µM; MIC [48]: ≥ 300 µM

Source: DBAASP
